In patent US6300346A, “Indenyl hydroxamic acids, (hydroxy) ureas and urethanes for treating patients with precancerous lesions” (Cell Pathways, Inc., priority 2000, dated 2001):
pEC50, pIC50: −log10 of the molar value. Values belong to the compound of their own block, whether it stands above or below them.

Legend:
[1] = Solubility remark in the HT-29 table; assay type: physicochemical; settings: printed in the IC50 column of TABLE I
[2] = tested on: HT-29 human colon carcinoma cells; experiment: HT-29 tumor cell growth inhibition / cytotoxicity (Sulforhodamine B Assay); assay type: cell-based; settings: 168 h, HT-29, seven days continuous exposure
Experimental: (§1) The compounds of this invention were assayed for their effect on the human colon carcinoma cell lines HT-29 and SW-480 obtained from ATCC (Rockville, Md.), representative of precancerous lesions to ascertain the degree of tumor growth inhibition following treatment with compounds of this invention. The cell line employed for these experiments is well characterized, and is used by the United States National Cancer Institute in their screening program for new anticancer drugs. Growth inhibition of this cell line is thought to be indicative of a benefit on precancerous lesions and neoplasms.
Tumor cell cytotoxicity was assessed using the Sulforhodamine B Assay. In this assay, HT-29 tumor cells were plated in 96-well plates and treated with drug-containing media for seven days (continuous exposure). At the end of the exposure period, the cell were fixed and stained with sulforhodamine B (a pink fluorescent dye). The dye was then solubilized, and the optical density of the resulting pink solution determined on a 96-well plate reader. The mean dye intensity of the treated wells was then divided by the mean dye intensity in the control wells (6 wells of each) to determine the effect of the drug on the cells. Dye intensity is proportional to the number of cells or amount of protein per well. The resultant "percent of control" value then represents the degree of growth inhibition caused by the drug.
For each experiment, an IC50 value was determined and used for comparative purposes. This value is equivalent to the concentration of drug needed to inhibit tumor cell growth by 50%. IC50 values were obtained graphically by connecting the mean values for each drug concentration tested. Each experiment included at least six wells per drug concentration. Concentration was plotted on a log scale on the X-axis.

[3] = tested on: SW-480 colon adenocarcinoma cells; experiment: Apoptosis: DNA fragmentation assay (Cell Death Detection ELISA plus); assay type: cell-based; settings: Homo sapiens, SW480, SW-480, 48 hrs; for pEC50: apoptosis
Experimental: as §1
Apoptosis was measured based on the amount of fragmented DNA contained in cell lysates. Briefly, SW-480 colon adenocarcinoma cells were plated at a density of 10K cells/well in 180 μl to 96-well microtitre plates ("MTP"), and incubated for 24 hrs. Cells were then treated with 20 μl aliquots appropriately diluted compound, and allowed to incubate for 48 hrs.
After the incubation, samples were prepared according to the following steps. […] Samples were analyzed immediately, because storage at 4 C or […] reduces the ELISA-signals.
Samples were then processed according to a DNA fragmentation assay protocol, and dose-response curves were generated based on optical density readings. […] The assay is based on a quantitative sandwich-enzyme-immunoassay-principle using mouse monoclonal antibodies directed against DNA and histones, respectively. […]
According to the vendor, the assay works in the following fashion. […] After removal of unbound antibodies by a washing step, the amount of nucleosomes is quantified by the POD retained in the immunocomplex. POD is determined photometrically with ABTS® (2,2'-Azino-di[3-ethylbenzthiazolin-sulfonat])* as substrate.
Fold stimulation (FS=ODmax/ODveh), an indicator of apoptotic response, was determined for each compound data analysis software, or by estimates based on the effective concentration range of each compound (ECR=min. effective dose-min. dose to peak effect).

polyps = settings: when the patient take the drug; cited from earlier work
[4] = sulfoxide itself, believed; cited from earlier work
prostaglandin synthesis = settings: acknowledged / regarded; cited from earlier work

solubility (reason for IC50 N/A) [1]: not very soluble
SMILES: CC1=C(CNC(=O)NC(C)C)c2cc(F)ccc2/C1=C\c1ccc(S(C)(=O)=O)cc1 [Example 21, (Z)-N-{[5-Fluoro-2-methyl-1-(p-methylsulfonylbenzylidene)inden-3-yl]-methyl}-N'-isopropyl urea]

SMILES: CC1=C(CNC(=O)NCCCN(C)C)c2cc(F)ccc2/C1=C\c1ccc(S(C)(=O)=O)cc1 [Example 22, (Z)-N-{[5-Fluoro-2-methyl-1-(p-methylsulfonyl-benzylidene)-inden-3-yl]-methyl}-N'-dimethylaminopropyl urea]
pIC50 [2]: 5.27 to 5.36
pEC50 [3]: 4.12

SMILES: CC1=C(CNC(=O)NCc2ccccc2)c2cc(F)ccc2/C1=C\c1ccc(S(C)(=O)=O)cc1 [Example 23, (Z)-N-{[5-Fluoro-2-methyl-1-(p-methylsulfonyl-benzylidene)-inden-3-yl]-methyl}-N'-benzyl urea]
pIC50 [2]: 5.49 to 5.80

solubility (reason for IC50 N/A) [1]: not very soluble
SMILES: CC1=C(CNC(=O)NCC(N)=O)c2cc(F)ccc2/C1=C\c1ccc(S(C)(=O)=O)cc1 [Example 24, (Z)-N-{[5-Fluoro-2-methyl-1-(p-methylsulfonyl-benzylidene)-inden-3-yl]-methyl}-N'-glycinamide urea]

SMILES: CC1=C(CNC(=O)OC(C)C)c2cc(F)ccc2/C1=C\c1ccc(S(C)(=O)=O)cc1 [Example 25, (Z)-N-{[5-Fluoro-2-methyl-1-(p-methylsulfonyl-benzylidene)-inden-3-yl]-methyl}-O-isopropyl urethane]
pIC50 [2]: 5.40 to 5.49

SMILES: COC(=O)NCC1=C(C)/C(=C/c2ccc(S(C)(=O)=O)cc2)c2ccc(F)cc21 [Example 26, (Z)-N-{[5-Fluoro-2-methyl-1-(p-methylsulfonyl-benzylidene)-inden-3-yl]-methyl}-O-methyl urethane]
pIC50 [2]: 5.10 to 5.35
maximal fold induction ([3]; FS=ODmax/ODveh, read-out: Fold Stimulation): 5 to 6.8
pEC50 [3]: 3.60

SMILES: CCOC(=O)NCC1=C(C)/C(=C/c2ccc(S(C)(=O)=O)cc2)c2ccc(F)cc21 [Example 27, (Z)-N-{[5-Fluoro-2-methyl-1-(p-methylsulfonyl-benzylidene)-inden-3-yl]-methyl}-O-ethyl urethane]
pIC50 [2]: 5.39

SMILES: COCCOC(=O)NCC1=C(C)/C(=C/c2ccc(S(C)(=O)=O)cc2)c2ccc(F)cc21 [Example 28, (Z)-N-{[5-Fluoro-2-methyl-1-(p-methylsulfonyl-benzylidene)-inden-3-yl]-methyl}-O-methoxyethyl urethane]
pIC50 [2]: 4.96 to 5.15

SMILES: CC1=C(CC(=O)O)c2cc(F)ccc2/C1=C\c1ccc([S+](C)[O-])cc1 (stereo not drawn) [Sulindac, (Z)-5-fluoro-2-methyl-1-(4-methylsulfinylbenzylidene)inden-3-ylacetic acid]
effect on polyps (polyps): Polyps virtually disappear
activity as an anti-arthritic agent [4]: inactive

SMILES: CSc1ccc(/C=C2/C(C)=C(CC(=O)O)c3cc(F)ccc32)cc1 [sulfide]
activity as a prostaglandin (synthesis) inhibitor (prostaglandin synthesis): active moiety as a prostaglandin inhibitor

SMILES: CC1=C(CC(=O)O)c2cc(F)ccc2/C1=C\c1ccc(S(C)(=O)=O)cc1 [sulfone]
activity as a prostaglandin (synthesis) inhibitor (prostaglandin synthesis): inactive
